Reference: US9493411B2 (AbbVie Inc., priority 2013, dated 2016)
Where two headings read alike, the source gives them in different places.

Columns and labels:
[1] = target: T1, BRD4 (BDI_K57-E168) (Homo sapiens, UniProt O60885); test: TR-FRET bromodomain binding assay, BRD4 first bromodomain; settings: His-tagged BD1, Alexa647-labeled probe 100 nM; Ki calculated from IC50
T1 construct: BD1: amino acids K57-E168; made in house
Method in brief: (§1)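 His-tagged BRD4 BD1 (K57-E168) or BD2 at 8 nM, 1 nM Eu-anti-His antibody and Alexa647 BET-inhibitor probe (100 nM for BDI, 30 nM for BDII) in pH 6.0 phosphate buffer, 2% DMSO, compound 50 μM-0.85 nM; 1 h at RT, TR-FRET read. IC50 by 4-parameter fit, Ki from probe Kd and concentration.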

[2] = target: T2, BRD4 (BDII_E352-M457) (Homo sapiens, UniProt O60885); test: TR-FRET bromodomain binding assay, BRD4 second bromodomain; settings: His-tagged BD2, Alexa647-labeled probe 30 nM; Ki calculated from IC50
T2 construct: made in house
Method in brief: as §1

[3] = tested on: breast cancer cell line MX-1; test: MX-1 cell line proliferation assay; type: cell-based; settings: MX-1 cells, 3-day proliferation assay, Cell Titer Glo, read-out: Cellular proliferation: EC50
Method: The impact of compounds of the Examples on cancer cell proliferation was determined using the breast cancer cell line MX-1 (ATCC) in a 3-day proliferation assay and the data are reported in Table 1. MX-1 cells were maintained in RPMI 1640 medium (Sigma) supplemented with 10% FBS at 37° C. and an atmosphere of 5% CO2. For compound testing, MX-1 cells were plated in 96-well black bottom plates at a density of 5000 cells/well in 90 μL of culture media and incubated at 37° overnight to allow cell adhesion and spreading. Compound dilution series were prepared in DMSO via a 3-fold serial dilution from 3 mM to 0.1 μM. The DMSO dilution series were then diluted 1:100 in phosphate buffered saline, and 10 μL of the resulted solution were added to the appropriate wells of the MX-1 cell plate. The final compound concentrations in the wells were 3, 1, 0.3, 0.1, 0.03, 0.01, 0.003, 0.001, 0.0003 and 0.0001 μM.
Luminescence readings from the Cell Titer Glo assay were normalized to the DMSO treated cells and analyzed using the GraphPad Prism software with sigmoidal curve fitting to obtain EC50s. The minimum significant ratio (MSR) was determined to evaluate assay reproducibility (Eastwood et al., (2006) J Biomol Screen, 11: 253-261).

Row | Structure (SMILES) | Ki [1] [µM] | Ki [2] [µM] | EC50 ([3]; Homo sapiens, MX1, 72 h) [µM] | EC50 [3] [µM]
1 | Cc1[nH]c(-c2ccc(-c3ccc(CN4CCN(C)CC4)cc3)cc2)cc1C(N)=O [Example 97, 2-methyl-5-{4′-[(4-methylpiperazin-1-yl)methyl]biphenyl-4-yl}-1H-pyrrole-3-carboxamide] | 1.41 | 1.87 | 15.3 | –
2 | Cc1[nH]c(-c2ccccc2NCCC2CCNCC2)cc1C(N)=O [Example 47, 2-methyl-5-(2-{[2-(piperidin-4-yl)ethyl]amino}phenyl)-1H-pyrrole-3-carboxamide] | 0.498 | 7.83 | > 10 | –
3 | Cc1[nH]c(-c2ccccc2Cc2ccccc2)cc1C(N)=O [Example 148, 5-(2-benzylphenyl)-2-methyl-1H-pyrrole-3-carboxamide] | 0.355 | 0.605 | 4.32 | –
4 | Cc1[nH]c(-c2ccccc2NC2CCc3ccccc32)cc1C(N)=O (stereo not drawn) [Example 67, 5-[2-(2,3-dihydro-1H-inden-1-ylamino)phenyl]-2-methyl-1H-pyrrole-3-carboxamide] | 0.452 | 0.81 | > 3 | –
5 | Cc1[nH]c(-c2ccccc2NC(=O)Cc2ccccc2)cc1C(N)=O [Example 76, 2-methyl-5-{2-[(phenylacetyl)amino]phenyl}-1H-pyrrole-3-carboxamide] | 4.5 | 2.98 | 13.4 | –
6 | Cc1[nH]c(-c2ccccc2Oc2ccc(F)cc2)cc1C(N)=O [Example 141, 5-[2-(4-fluorophenoxy)phenyl]-2-methyl-1H-pyrrole-3-carboxamide] | 0.123 | 1.6 | 2.42 | –
7 | Cc1[nH]c(-c2ccccc2Oc2ccc3[nH]ccc3c2)cc1C(N)=O [Example 130, 5-[2-(1H-indol-5-yloxy)phenyl]-2-methyl-1H-pyrrole-3-carboxamide] | 0.471 | 1.22 | 1.77 | –
8 | Cc1[nH]c(-c2ccccc2Oc2cccc3ncccc23)cc1C(N)=O [Example 128, 2-methyl-5-[2-(quinolin-5-yloxy)phenyl]-1H-pyrrole-3-carboxamide] | 0.0273 | 0.318 | 0.4 | –
9 | Cc1[nH]c(-c2ccccc2Oc2cccc(C#N)c2)cc1C(N)=O [Example 127, 5-[2-(3-cyanophenoxy)phenyl]-2-methyl-1H-pyrrole-3-carboxamide] | 0.233 | 1.04 | 2 | –
10 | Cc1[nH]c(-c2ccccc2Oc2cccnc2)cc1C(N)=O [Example 126, 2-methyl-5-[2-(pyridin-3-yloxy)phenyl]-1H-pyrrole-3-carboxamide] | 0.0834 | 1.14 | 1.3 | –
11 | Cc1[nH]c(-c2ccccc2Oc2ccc(Cl)cc2F)cc1C(N)=O [Example 129, 5-[2-(4-chloro-2-fluorophenoxy)phenyl]-2-methyl-1H-pyrrole-3-carboxamide] | 0.281 | 2.24 | 2.25 | –
12 | Cc1[nH]c(-c2ccccc2NC[C@H]2CC[C@H](N)CC2)cc1C(N)=O [Example 49, 5-(2-{[(trans-4-aminocyclohexyl)methyl]amino}phenyl)-2-methyl-1H-pyrrole-3-carboxamide] | 0.313 | 5.6 | > 10 | –
13 | Cc1[nH]c(-c2ccccc2Oc2ccccc2F)cc1C(N)=O [Example 117, 5-[2-(2-fluorophenoxy)phenyl]-2-methyl-1H-pyrrole-3-carboxamide] | 0.391 | 0.725 | 1.35 | –
14 | Cc1[nH]c(-c2ccccc2NCc2ccc3[nH]ccc3c2)cc1C(N)=O [Example 56, 5-{2-[(1H-indol-5-ylmethyl)amino]phenyl}-2-methyl-1H-pyrrole-3-carboxamide] | 1.63 | 2.69 | > 10 | –
15 | Cc1[nH]c(-c2ccccc2Oc2ccc(N)cc2)cc1C(N)=O [Example 119, 5-[2-(4-aminophenoxy)phenyl]-2-methyl-1H-pyrrole-3-carboxamide] | 0.249 | 1.1 | 0.998 | –
16 | COc1cc(-c2cc(C(N)=O)c(C)[nH]2)cc(OC)c1OC [Example 149, 2-methyl-5-(3,4,5-trimethoxyphenyl)-1H-pyrrole-3-carboxamide] | 0.884 | 3.88 | 2.32 | –
17 | Cc1[nH]c(-c2ccccc2NCC2CCOC2)cc1C(N)=O (single isomer, unassigned) [Example 19] | 0.131 | 1.83 | – | 2.36
18 | Cc1[nH]c(-c2ccccc2Oc2cccc3cnccc23)cc1C(N)=O [Example 125, 5-[2-(isoquinolin-5-yloxy)phenyl]-2-methyl-1H-pyrrole-3-carboxamide] | 0.18 | 0.192 | 1.6 | –
19 | Cc1[nH]c(-c2ccccc2NCC2CCOC2)cc1C(N)=O (stereo not drawn) [Example 17, 2-methyl-5-{2-[(tetrahydrofuran-3-ylmethyl)amino]phenyl}-1H-pyrrole-3-carboxamide] | 0.248 | 1.87 | 1.5 | –
20 | Cc1[nH]c(-c2ccccc2NC[C@H]2CC[C@@H](NC(=O)OC(C)(C)C)CC2)cc1C(N)=O [Example 45, tert-butyl [cis-4-({[2-(4-carbamoyl-5-methyl-1H-pyrrol-2-yl)phenyl]amino}methyl)cyclohexyl]carbamate] | 0.434 | 9.29 | 5.44 | –
21 | Cc1[nH]c(-c2ccccc2NC2CCCCC2)cc1C(N)=O [Example 62, 5-[2-(cyclohexylamino)phenyl]-2-methyl-1H-pyrrole-3-carboxamide] | 0.197 | 1.24 | 0.52 | –
22 | Cc1[nH]c(-c2ccccc2NCc2ccc(O)cc2)cc1C(N)=O [Example 54, 5-{2-[(4-hydroxybenzyl)amino]phenyl}-2-methyl-1H-pyrrole-3-carboxamide] | 0.585 | 3.88 | 0.19 | –
23 | Cc1[nH]c(-c2ccccc2NS(=O)(=O)C2CCCC2)cc1C(N)=O [Example 87, 5-{2-[(cyclopentylsulfonyl)amino]phenyl}-2-methyl-1H-pyrrole-3-carboxamide] | 0.366 | 0.465 | > 3 | –
24 | Cc1[nH]c(-c2ccccc2NCc2ccccc2)cc1C(N)=O [Example 12, 5-[2-(benzylamino)phenyl]-2-methyl-1H-pyrrole-3-carboxamide] | 0.935 | 3.9 | 3.44 | –
25 | Cc1[nH]c(-c2cccc(-c3ccc(C(=O)NCCN(C)C)cc3)c2)cc1C(N)=O [Example 159, 5-(4′-{[2-(dimethylamino)ethyl]carbamoyl}biphenyl-3-yl)-2-methyl-1H-pyrrole-3-carboxamide] | 1.08 | 2.1 | 28.6 | –
26 | Cc1[nH]c(-c2ccccc2Oc2ccc3ccccc3c2)cc1C(N)=O [Example 139, 2-methyl-5-[2-(naphthalen-2-yloxy)phenyl]-1H-pyrrole-3-carboxamide] | 0.728 | 1.19 | 8.56 | –
27 | Cc1[nH]c(-c2ccccc2Oc2ccc(Cc3ccccc3)cc2)cc1C(N)=O [Example 121, 5-[2-(4-benzylphenoxy)phenyl]-2-methyl-1H-pyrrole-3-carboxamide] | 0.776 | 10.2 | > 10 | –
28 | Cc1[nH]c(-c2ccccc2Oc2ccc3cc[nH]c3c2)cc1C(N)=O [Example 118, 5-[2-(1H-indol-6-yloxy)phenyl]-2-methyl-1H-pyrrole-3-carboxamide] | 0.529 | 1.73 | 1.32 | –
